Assays:
[1] = tested on: Human multiple myeloma cell (MM.1S); assay: Tumor cell proliferation inhibition (CellTiter-Meiluncell luminescent cell viability assay); conditions: for inhibition at 0.01 µM: read-out: Inhibition Rate at 10 nM (%); for Inhibition Rate at 500 nM (%): MM.1S, 96 hours
CK1α = molecular target: T1, CK1α (Homo sapiens, UniProt P48729+Q96SW2); assay: Western blot, degradation of substrate protein in hPBMCs; type: cell-based; conditions: Western blot, 24 hours of compound treatment, compounds tested at 50 nM and 500 nM (concentration for the table not stated)
T1 construct: effects of the compounds of the present disclosure on the expression of target proteins in cells; endogenous in cells; host or cells: human PBMCs (Milecell Biotechnologies)

IKZF2 = molecular target: T2, IKZF2 (Homo sapiens, UniProt Q96SW2+Q9UKS7); assay: as above; type: cell-based; conditions: Western blot, 24 hours of compound treatment, compounds tested at 50 nM and 500 nM (concentration for the table not stated)
T2 construct: effects of the compounds of the present disclosure on the expression of target proteins in cells; endogenous in cells; host or cells: human PBMCs (Milecell Biotechnologies)

WEE1 = molecular target: T3, WEE1 (Homo sapiens, UniProt P30291+Q96SW2); assay: as above; type: cell-based; conditions: Western blot, 24 hours of compound treatment, compounds tested at 50 nM and 500 nM (concentration for the table not stated)
T3 construct: effects of the compounds of the present disclosure on the expression of target proteins in cells; endogenous in cells; host or cells: human PBMCs (Milecell Biotechnologies)

IKZF1 = molecular target: T4, IKZF1 (Homo sapiens, UniProt Q13422+Q96SW2); assay: as above; type: cell-based; conditions: Western blot, 24 hours of compound treatment, compounds tested at 50 nM and 500 nM (concentration for the table not stated)
T4 construct: effects of the compounds of the present disclosure on the expression of target proteins in cells; endogenous in cells; host or cells: human PBMCs (Milecell Biotechnologies)

IKZF3 = molecular target: T5, IKZF3 (Homo sapiens, UniProt Q96SW2+Q9UKT9); assay: as above; type: cell-based; conditions: Western blot, 24 hours of compound treatment, compounds tested at 50 nM and 500 nM (concentration for the table not stated)
T5 construct: effects of the compounds of the present disclosure on the expression of target proteins in cells; endogenous in cells; host or cells: human PBMCs (Milecell Biotechnologies)

[2] = molecular target: T6, human Cereblon WT GST-tagged protein (Homo sapiens, UniProt Q96SW2); assay: CRBN-binding affinity, HTRF (CEREBLON BINDING kit); conditions: for inhibition at 0.5 µM: read-out: Inhibition Rate at 0.5 µM (%); for inhibition at 2 µM: read-out: Inhibition Rate at 2 µM (%)
T6 construct: purchased CISBIO 64BDCRBNPEH

GSPT1 = assay: Western blot, degradation of substrate protein in hPBMCs; type: cell-based, Human; conditions: Western blot, 24 hours of compound treatment, compounds tested at 50 nM and 500 nM (concentration for the table not stated)

T2 sequence (Q9UKS7 whole entry): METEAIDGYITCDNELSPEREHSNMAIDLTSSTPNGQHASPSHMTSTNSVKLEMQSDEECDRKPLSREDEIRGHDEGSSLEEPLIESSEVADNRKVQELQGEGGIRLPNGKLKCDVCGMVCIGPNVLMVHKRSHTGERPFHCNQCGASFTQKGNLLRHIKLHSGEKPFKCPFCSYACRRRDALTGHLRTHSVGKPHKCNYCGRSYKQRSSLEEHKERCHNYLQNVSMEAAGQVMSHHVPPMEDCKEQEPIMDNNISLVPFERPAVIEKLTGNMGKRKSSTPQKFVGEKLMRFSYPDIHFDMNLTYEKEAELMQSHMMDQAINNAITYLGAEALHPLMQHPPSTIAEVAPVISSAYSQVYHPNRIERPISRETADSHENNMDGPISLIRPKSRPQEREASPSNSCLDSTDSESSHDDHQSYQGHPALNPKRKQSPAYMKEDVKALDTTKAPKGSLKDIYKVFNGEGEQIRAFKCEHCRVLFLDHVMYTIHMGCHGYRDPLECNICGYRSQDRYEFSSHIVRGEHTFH
T2 sequence (Q96SW2 whole entry): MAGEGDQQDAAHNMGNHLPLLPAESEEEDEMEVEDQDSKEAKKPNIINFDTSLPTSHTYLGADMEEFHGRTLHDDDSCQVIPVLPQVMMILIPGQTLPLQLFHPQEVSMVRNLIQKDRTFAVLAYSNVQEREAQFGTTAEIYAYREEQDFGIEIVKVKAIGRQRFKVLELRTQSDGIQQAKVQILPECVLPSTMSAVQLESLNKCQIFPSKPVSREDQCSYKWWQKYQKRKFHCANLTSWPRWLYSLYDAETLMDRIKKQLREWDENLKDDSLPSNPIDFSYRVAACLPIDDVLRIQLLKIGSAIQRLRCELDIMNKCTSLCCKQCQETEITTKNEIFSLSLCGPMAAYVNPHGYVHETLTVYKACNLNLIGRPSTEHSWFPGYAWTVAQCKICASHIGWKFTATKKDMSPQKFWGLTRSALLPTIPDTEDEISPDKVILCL
T2 sequence (Q16531 whole entry partner): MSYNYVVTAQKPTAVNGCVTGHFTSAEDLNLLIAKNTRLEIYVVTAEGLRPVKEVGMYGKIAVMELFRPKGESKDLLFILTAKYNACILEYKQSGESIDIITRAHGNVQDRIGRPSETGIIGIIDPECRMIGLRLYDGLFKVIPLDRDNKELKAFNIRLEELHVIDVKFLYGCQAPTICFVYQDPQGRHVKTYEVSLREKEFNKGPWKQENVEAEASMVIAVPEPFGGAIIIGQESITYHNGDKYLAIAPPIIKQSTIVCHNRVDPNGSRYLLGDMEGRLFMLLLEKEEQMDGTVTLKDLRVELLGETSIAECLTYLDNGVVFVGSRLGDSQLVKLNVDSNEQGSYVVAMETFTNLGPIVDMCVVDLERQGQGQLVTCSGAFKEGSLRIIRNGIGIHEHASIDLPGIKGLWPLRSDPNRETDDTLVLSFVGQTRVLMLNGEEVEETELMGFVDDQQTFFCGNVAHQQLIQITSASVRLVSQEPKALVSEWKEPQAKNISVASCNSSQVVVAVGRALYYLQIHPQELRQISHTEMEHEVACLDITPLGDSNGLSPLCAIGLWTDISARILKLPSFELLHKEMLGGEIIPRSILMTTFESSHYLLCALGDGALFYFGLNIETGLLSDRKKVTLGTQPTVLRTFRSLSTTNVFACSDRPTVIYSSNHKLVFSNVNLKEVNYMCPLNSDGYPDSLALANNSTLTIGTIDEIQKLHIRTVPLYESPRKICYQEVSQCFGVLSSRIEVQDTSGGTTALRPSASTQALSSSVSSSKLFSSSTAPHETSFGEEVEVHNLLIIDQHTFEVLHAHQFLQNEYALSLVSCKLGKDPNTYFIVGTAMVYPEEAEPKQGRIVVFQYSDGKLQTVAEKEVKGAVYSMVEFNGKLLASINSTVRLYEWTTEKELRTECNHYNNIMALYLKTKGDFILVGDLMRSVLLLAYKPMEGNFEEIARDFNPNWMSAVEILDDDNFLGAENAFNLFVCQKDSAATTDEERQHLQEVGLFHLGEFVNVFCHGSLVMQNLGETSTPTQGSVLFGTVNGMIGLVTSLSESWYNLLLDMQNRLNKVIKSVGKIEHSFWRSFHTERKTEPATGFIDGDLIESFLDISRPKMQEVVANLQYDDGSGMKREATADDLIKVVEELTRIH
T3 sequence (P30291 whole entry): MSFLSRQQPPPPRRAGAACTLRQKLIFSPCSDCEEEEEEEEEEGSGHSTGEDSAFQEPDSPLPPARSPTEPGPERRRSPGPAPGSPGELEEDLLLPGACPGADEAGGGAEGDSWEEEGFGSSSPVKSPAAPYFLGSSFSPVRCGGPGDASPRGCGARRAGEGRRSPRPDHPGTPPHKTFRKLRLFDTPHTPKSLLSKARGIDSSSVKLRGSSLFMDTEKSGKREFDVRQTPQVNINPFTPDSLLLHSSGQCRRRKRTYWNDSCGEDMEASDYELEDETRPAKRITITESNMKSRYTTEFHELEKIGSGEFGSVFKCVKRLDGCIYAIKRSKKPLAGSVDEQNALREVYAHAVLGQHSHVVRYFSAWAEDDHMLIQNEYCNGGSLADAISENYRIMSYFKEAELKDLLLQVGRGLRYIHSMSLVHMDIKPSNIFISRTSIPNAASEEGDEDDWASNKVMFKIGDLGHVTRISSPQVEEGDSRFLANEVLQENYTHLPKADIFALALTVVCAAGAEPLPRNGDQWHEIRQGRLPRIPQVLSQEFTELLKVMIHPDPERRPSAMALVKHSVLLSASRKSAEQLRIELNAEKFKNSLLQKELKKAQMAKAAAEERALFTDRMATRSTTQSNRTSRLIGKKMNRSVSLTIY
T3 sequence (Q96SW2 whole entry): as the sequence (Q96SW2 whole entry) above
T3 sequence (Q16531 whole entry partner): as the sequence (Q16531 whole entry partner) above
T5 sequence (Q9UKT9 whole entry): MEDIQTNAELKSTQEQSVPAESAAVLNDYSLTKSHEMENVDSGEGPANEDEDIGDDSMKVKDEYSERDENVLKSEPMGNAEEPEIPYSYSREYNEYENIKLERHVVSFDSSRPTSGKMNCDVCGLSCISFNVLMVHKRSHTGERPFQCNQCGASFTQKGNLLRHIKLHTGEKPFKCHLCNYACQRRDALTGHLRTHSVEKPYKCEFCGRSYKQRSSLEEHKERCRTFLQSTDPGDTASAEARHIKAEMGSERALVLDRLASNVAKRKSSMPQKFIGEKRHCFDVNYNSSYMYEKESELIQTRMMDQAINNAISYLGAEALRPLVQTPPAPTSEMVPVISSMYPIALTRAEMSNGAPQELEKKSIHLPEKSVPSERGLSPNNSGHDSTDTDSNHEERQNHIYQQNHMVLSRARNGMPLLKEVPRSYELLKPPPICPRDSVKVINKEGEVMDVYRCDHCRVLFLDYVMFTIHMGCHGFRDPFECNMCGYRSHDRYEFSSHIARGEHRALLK
T5 sequence (Q96SW2 whole entry): as the sequence (Q96SW2 whole entry) above
T5 sequence (Q16531 whole entry partner): as the sequence (Q16531 whole entry partner) above
T4 sequence (Q13422 whole entry): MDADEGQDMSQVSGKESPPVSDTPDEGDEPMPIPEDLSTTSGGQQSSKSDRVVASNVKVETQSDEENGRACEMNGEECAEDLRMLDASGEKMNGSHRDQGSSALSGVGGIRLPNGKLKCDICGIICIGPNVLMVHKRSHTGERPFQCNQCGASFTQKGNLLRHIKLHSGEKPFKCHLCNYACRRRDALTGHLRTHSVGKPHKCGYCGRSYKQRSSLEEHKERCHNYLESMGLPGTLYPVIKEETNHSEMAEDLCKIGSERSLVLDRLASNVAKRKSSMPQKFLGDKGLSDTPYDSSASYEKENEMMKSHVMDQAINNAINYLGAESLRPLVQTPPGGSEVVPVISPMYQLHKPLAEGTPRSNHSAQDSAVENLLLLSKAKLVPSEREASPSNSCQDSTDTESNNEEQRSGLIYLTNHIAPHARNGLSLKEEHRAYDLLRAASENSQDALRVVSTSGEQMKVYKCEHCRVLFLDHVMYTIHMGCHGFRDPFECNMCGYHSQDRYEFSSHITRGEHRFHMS
T4 sequence (Q96SW2 whole entry): as the sequence (Q96SW2 whole entry) above
T4 sequence (Q16531 whole entry partner): as the sequence (Q16531 whole entry partner) above
T6 sequence (Q96SW2 whole entry): as the sequence (Q96SW2 whole entry) above
T1 sequence (P48729 whole entry): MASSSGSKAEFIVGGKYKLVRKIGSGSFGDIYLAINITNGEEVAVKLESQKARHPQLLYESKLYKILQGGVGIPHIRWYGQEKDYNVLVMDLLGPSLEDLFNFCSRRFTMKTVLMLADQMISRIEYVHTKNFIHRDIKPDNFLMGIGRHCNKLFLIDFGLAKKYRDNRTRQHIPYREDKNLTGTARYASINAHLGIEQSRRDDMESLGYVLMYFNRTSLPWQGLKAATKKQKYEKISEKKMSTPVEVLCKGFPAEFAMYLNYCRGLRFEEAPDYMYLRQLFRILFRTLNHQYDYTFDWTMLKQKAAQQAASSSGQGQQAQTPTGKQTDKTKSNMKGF
T1 sequence (Q96SW2 whole entry): as the sequence (Q96SW2 whole entry) above
T1 sequence (Q16531 whole entry partner): as the sequence (Q16531 whole entry partner) above

Structure (SMILES)	inhibition at 0.01 µM ([1]; Homo sapiens, MM1.S, 96 h) [%]	inhibition at 0.5 µM ([1]; Homo sapiens, MM1.S, 96 h, read-out: Inhibition Rate at 500 nM (%)) [%]	CK1α substrate protein remaining % (CK1α)	IKZF2 substrate protein remaining % (IKZF2)	Wee1 substrate protein remaining % (WEE1)	IKZF 1 substrate protein remaining % (IKZF1)	IKZF3 substrate protein remaining % (IKZF3)	inhibition at 0.5 µM [2] [%]	inhibition at 2 µM [2] [%]	GSPT1 substrate protein remaining % (GSPT1)	Inhibition Rate at 500 nM (%) [1]
O=C1CCC(N2Cc3cc(CN4CCN(c5ccccc5Cl)CC4)ccc3C2=S)C(=O)N1 (stereo not shown) [GT-08241, 3-(5-((4-(2-chlorophenyl)piperazin-1-yl)methyl)-1-thioxoisoindolin-2-yl)piperidine-2,6-dione]	20 to 30	70 to 80	B (80%< substrate protein remaining %≤ 100%)	B (80%< substrate protein remaining %≤ 100%)	B (80%< substrate protein remaining %≤ 100%)	B (80%< substrate protein remaining %≤ 100%)	B (80%< substrate protein remaining %≤ 100%)	40 to 53	80 to 100	A (0% ≤ substrate protein remaining % ≤ 80%)	
O=C1CCC(N2Cc3cc(CN4CCN(c5ccccc5Br)CC4)ccc3C2=S)C(=O)N1 (stereo not shown) [GT-08242, 3-(5-((4-(2-bromophenyl)piperazin-1-yl)methyl)-1-thioxoisoindolin-2-yl)piperidine-2,6-dione]	30 to 40		B (80%< substrate protein remaining %≤ 100%)	B (80%< substrate protein remaining %≤ 100%)	B (80%< substrate protein remaining %≤ 100%)	B (80%< substrate protein remaining %≤ 100%)	B (80%< substrate protein remaining %≤ 100%)	40 to 53	80 to 100	A (0% ≤ substrate protein remaining % ≤ 80%)	la8
O=C1CCC(N2Cc3c(CN4CC=C(c5ncccc5F)CC4)cccc3C2=S)C(=O)N1 (stereo not shown) [GT-08463, 3-(4-((3-fluoro-3',6'-dihydro-[2,4'-bipyridin]-1'(2'H)-yl)methyl)-1-thioxoisoindolin-2-yl)piperidine-2,6-dione]	40 to 50		B (80%< substrate protein remaining %≤ 100%)	B (80%< substrate protein remaining %≤ 100%)	A (0% ≤ substrate protein remaining % ≤ 80%)	B (80%< substrate protein remaining %≤ 100%)	B (80%< substrate protein remaining %≤ 100%)	53 to 60	60 to 80	A (0% ≤ substrate protein remaining % ≤ 80%)	la5
O=C1CCC(N2Cc3c(CN4CC=C(c5ccnc(F)c5F)CC4)cccc3C2=S)C(=O)N1 (stereo not shown) [GT-08464, 3-(4-((2',3'-difluoro-3,6-dihydro-[4,4'-bipyridin]-1(2H)-yl)methyl)-1-thioxoisoindolin-2-yl)piperidine-2,6-dione]	50 to 60		B (80%< substrate protein remaining %≤ 100%)	B (80%< substrate protein remaining %≤ 100%)	A (0% ≤ substrate protein remaining % ≤ 80%)	B (80%< substrate protein remaining %≤ 100%)	B (80%< substrate protein remaining %≤ 100%)	60 to 80	60 to 80	A (0% ≤ substrate protein remaining % ≤ 80%)	la5
